Data: patent publication US9790218B2, “Small molecule activators of calcium-activated chloride channels and methods of use” (The Regents of the University of California, priority 2011, dated 2017)
pEC50: −log10 of the molar value. Where two headings read alike, the source gives them in different places.

Legend:
TMEM16A [1] = molecular target: T1, TMEM16A (Homo sapiens, UniProt Q5XXA6, DEL476-501); assay: Fluorescence plate reader assay of TMEM16A-mediated I^− influx (YFP halide sensor); format: cell-based; settings: for EC50 (μM) / pEC50: fluorescence plate reader assay; for TMEM16A conductance, F class SAR: synthesized F class analogs; for pEC50: read-out: EC50
T1 construct: expressed in transfected cells
T1 sequence (Q5XXA6 with tags, fused parts or gaps isoform Q5XXA6-5 DEL539-564): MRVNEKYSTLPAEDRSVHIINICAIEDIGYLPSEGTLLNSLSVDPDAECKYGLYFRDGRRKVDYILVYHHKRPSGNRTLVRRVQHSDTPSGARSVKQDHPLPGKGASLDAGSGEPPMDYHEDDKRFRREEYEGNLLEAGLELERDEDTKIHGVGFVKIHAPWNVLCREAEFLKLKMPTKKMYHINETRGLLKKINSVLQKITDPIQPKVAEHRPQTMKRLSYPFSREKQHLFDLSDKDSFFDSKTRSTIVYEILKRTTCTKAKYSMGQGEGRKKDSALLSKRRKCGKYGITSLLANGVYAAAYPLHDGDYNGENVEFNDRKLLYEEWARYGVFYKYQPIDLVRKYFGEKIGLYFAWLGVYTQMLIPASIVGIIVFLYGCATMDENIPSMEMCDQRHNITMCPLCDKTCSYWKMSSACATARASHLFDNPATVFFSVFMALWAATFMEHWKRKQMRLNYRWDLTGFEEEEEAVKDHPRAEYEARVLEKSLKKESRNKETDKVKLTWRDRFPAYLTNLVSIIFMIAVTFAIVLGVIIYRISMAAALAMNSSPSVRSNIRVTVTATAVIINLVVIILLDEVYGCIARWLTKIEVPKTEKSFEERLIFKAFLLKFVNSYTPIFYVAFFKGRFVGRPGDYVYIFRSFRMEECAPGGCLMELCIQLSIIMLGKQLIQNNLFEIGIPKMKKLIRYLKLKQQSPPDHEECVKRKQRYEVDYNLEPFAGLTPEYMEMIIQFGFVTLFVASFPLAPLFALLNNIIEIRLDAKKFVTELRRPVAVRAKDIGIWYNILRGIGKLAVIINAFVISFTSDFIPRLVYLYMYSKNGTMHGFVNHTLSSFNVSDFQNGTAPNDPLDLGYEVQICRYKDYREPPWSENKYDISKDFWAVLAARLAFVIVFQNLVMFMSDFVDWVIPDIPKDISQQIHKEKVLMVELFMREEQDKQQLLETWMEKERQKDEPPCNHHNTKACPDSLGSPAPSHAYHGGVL
Method: (§1) FRT cells were stably transfected with human TMEM16A (TMEM16A(abc), cDNA provided by Dr. Luis Galietta, Gaslini Institute, Genoa, Italy) and the halide sensor YFP-H148Q/1152L/F46L. Cells were plated in 96-well black-walled microplates (Corning Inc., Corning, N.Y.) at a density of 20,000 cells per well in Coon's modified F12 medium supplemented with 5% fetal calf serum, 2 mM L-glutamine, 100 U/mL penicillin and 100 μg/mL streptomycin. The human submandibular cell line A253 (ATCC HTB 41) was cultured in complete McCoy's 5A medium supplemented with 10% fetal bovine serum, 100 U/mL penicillin and 100 μg/mL streptomycin.
TMEM16A activators were identified from screening of ˜110,000 synthetic drug-like compounds, purified natural products and approved/investigational drugs. The cell-based screen employs FRT cells coexpressing human TMEM16A and the I^−-sensing yellow fluorescent protein YFP-H148Q/1152L/F46L. FRT cells were chosen because of their low basal I^− and Cl^− transport, rapid growth on uncoated plastic, strong stable expression of transfected proteins, and formation of tight junctions for measurements of transepithelial short-circuit current (Ma et al., supra).
High-throughput screening was done using an automated screening platform (Beckman) equipped with FluoStar fluorescence plate readers (BMG Lab Technologies, Durham, N.C.) as described (Ma et al., supra). Each well of a 96-well plate was washed 3 times with PBS (200 μL/wash), leaving 50 μL PBS. Test compounds (0.5 μL) were added to each well at […]. After 10 min, 96-well plates were transferred to a plate reader for fluorescence assay. Each well was assayed individually for TMEM16A-mediated I^− influx by recording fluorescence continuously (400 ms per point) for 2 s (baseline), then 50 μL of a 140 mM I^− solution was added. The initial rate of I^− influx was computed from fluorescence data by non-linear regression.
As diagrammed in FIG. 1A, test compounds at 25 μM final concentration were added 10 min prior to I^− addition. The 10 min incubation was chosen to allow for compound transport into cytoplasm and to minimize false positives from compounds that elevate cytoplasmic Ca^2+ transiently. Fluorescence from individual wells of 96-well plates was measured just prior to and for 6 s after I^− addition for computation of initial I^− influx rate.

TMEM16A [2] = molecular target: T1, TMEM16A; assay: Apical membrane current in TMEM16A-expressing FRT cells; format: cell-based; settings: basolateral membrane permeabilized, Cl^− gradient; ATP 100 μM
Method: as §1
Snapwell inserts containing TMEM16A-expressing FRT, HBE, CF HBE or HTG cells were mounted in Ussing chambers (Physiologic Instruments, San Diego, Calif.). Amiloride, CFTRinh-172, UTP, ATP, T16Ainh-A01 and TMEM16A activators were added to the apical solution and an equal volume of vehicle was added at the same time to the basolateral solution. Symmetrical HCO3^−-buffered solutions were used for HBE, CF HBE and HTG cells. For FRT cells, the hemichambers were filled with a half-Cl^− solution (apical) and the HCO3^−-buffered solution (basolateral), and the basolateral membrane was permeabilized with 250 μg/mL amphotericin B, as described (Namkung et al. (2010), supra). Cells were bathed for a 10 min stabilization period and aerated with 95% O2/5% CO2 at 37° C. or room temperature. Apical membrane current (for FRT cells) and short-circuit current were measured using an EVC4000 Multi-Channel V/I Clamp (World Precision Instruments, Sarasota, Fla.) and recorded using PowerLab/8sp (AD Instruments, Castle Hill, Australia).
The current increase was sustained for >10 min (FIG. 2B, inset). […] Data are also shown for a second Fact compound (Fact9, see Table 1) in FIG. 9.

[3] = system: mouse ileal smooth muscle; assay: Intestinal smooth muscle contraction, ex vivo mouse ileal segments; settings: Eact 10 μM, carbachol 1 μM following atropine
Method: FIG. 8A-C. Intestinal smooth muscle contraction. FIG. 8A. Representative traces from mouse ileal segments showing effects of T16Ainh-A01 (10 μM), carbachol (CCh, 1 μM) and Eact (10 μM). FIG. 8B. Effect of CCh (1 μM) and Eact (10 μM) following atropine (1 μM). FIG. 8C. Summary of contraction frequency (left), and resting and maximum tone (right) (mean±S.E., n=4-7, * P<0.05).
Wild type CD1 mice (age 8-10 weeks) were killed by avertin overdose (200 mg/kg). The ileum removed and washed with ice-cold HCO3^−-buffered solution. The ends of the ileal segments were tied with silk thread and connected to a force transducer. Beal segments were equilibrated for 60 min with a resting force of ˜1 mN, with changes of the bathing solution every 15 min. Tension was monitored continuously with a fixed-range precision force transducer (TSD, 125 C; Biopac, Goleta, Calif.) connected to a differential amplifier (DA 100B; Biopac). Data were recorded using MP100, Biopac digital acquisition system and analyzed using Acknowledge 3.5.7 software.
TMEM16A in expressed in the interstitial cells of Cajal, the pacemaker cells that control smooth muscle contraction dynamics in stomach and intestine (Huang et al., supra; Gomez-Pinilla et al. (2009) Am. J. Physiol. Gastrointest. Liver Physiol. 296, G1370-1381). The effect of Eact on mouse ileal smooth muscle contraction was investigated using an ex vivo intestinal preparation. […] Without wishing to be bound by theory, the constitutive TMEM16A activity in this ex vivo preparation could obscure Eact activity. To reveal Eact effects, atropine was first added to inhibit basal contractions. […] FIG. 8C summarizes data on contraction frequency, resting tone and maximal tone.

SMILES: O=C(Nc1ccccc1Br)c1cccc(-n2cnnn2)c1 [2-bromophenyl]
- EC50 (μM) (TMEM16A [1]; Fact analogs): inactive

SMILES: O=C(Nc1cccc(Br)c1)c1cccc(-n2cnnn2)c1 [3-bromophenyl]
- EC50 (μM) (TMEM16A [1]; Fact analogs): inactive

SMILES: CN(C)c1ccc(NC(=O)c2cccc(-n3cnnn3)c2)cc1 [4-(N,N-dimethylamino)phenyl]
- EC50 (μM) (TMEM16A [1]; Fact analogs): inactive
- TMEM16A conductance, F class SAR (TMEM16A [1]): low activity

SMILES: O=C(Nc1ccc(Br)c(C(F)(F)F)c1)c1cccc(-n2cnnn2)c1 [4-bromo-3-trifluoromethylphenyl]
- pEC50 (TMEM16A [1]; Fact analogs): 4.26

SMILES: O=C(Nc1ccc(Cl)cc1)c1cccc(-n2cnnn2)c1 [4-chlorophenyl]
- EC50 (μM) (TMEM16A [1]; Fact analogs): inactive
- TMEM16A conductance, F class SAR (TMEM16A [1]): low activity

SMILES: O=C(Nc1ccc([N+](=O)[O-])cc1)c1cccc(-n2cnnn2)c1 [4-nitrophenyl]
- EC50 (μM) (TMEM16A [1]; Fact analogs): inactive
- TMEM16A conductance, F class SAR (TMEM16A [1]): low activity

SMILES: COc1ccc(CC(=O)N(Cc2ccncc2)c2nc(-c3ccccc3)cs2)c(OC)c1OC [(pyrid-4-yl)methyl / phenyl, N-(4-pyridylmethyl)-N-(4-phenyl-2-thiazolyl)-2,3,4-trimethoxybenzeneacetamide]
- pEC50 (TMEM16A [1]; Eact analogs): 5.70

SMILES: Nc1ncnc2c1ncn2[C@@H]1O[C@H](COP(=O)(O)OP(=O)(O)OP(=O)(O)O)[C@@H](O)[C@H]1O [ATP, reference compound]
- Cl^− current (apical membrane current) (TMEM16A [2]): large but transient elevation in Cl^− current

SMILES: CC(C)c1ccc(NC(=O)c2cccc(-n3cnnn3)c2)cc1 [Fact9, N-(4-isopropylphenyl)-3-(1H-tetrazol-1-yl)benzamide]
- pEC50 (TMEM16A [1]; Fact analogs): 4.96
- Cl^− current (apical membrane current) (TMEM16A [2]): stimulated TMEM16A Cl^− current

SMILES: CN1[C@@H]2CC[C@H]1C[C@@H](OC(=O)C(CO)c1ccccc1)C2 (stereo partly drawn) [atropine]
- contraction after atropine (1 μM) [3]: prevented the carbachol effect

SMILES: COc1ccc(-c2csc(N(Cc3ccccc3)C(=O)c3cc(OC)c(OC)c(OC)c3)n2)cc1 [benzyl / 4-methoxyphenyl]
- pEC50 (TMEM16A [1]; Eact analogs): 5.40
